Measurements reported in EP0294538B1, “Use of nigericin for the production of a medicament for the treatment of viral diseases” (S O "PHARMACHIM", priority 1987, dated 1988).

Key:
[1] = tested on: Virus-Erkrankungen des Auges; assay: Clinical study of different treatments of viral diseases of the eye (Table 1); format: in vivo, Patienten
Description: Ergebnisse der klinischen Untersuchungen von Nigerizin (s. Tabelle 1).
Das Nigerizin enthaltende Arzneimittel in Form von Tropfen, Salbe und Suppositorien wurde an insgesamt 711 Patienten mit verschiedenen Virus-Erkrankungen: Labial-, Fazial-, Genital- und Gluteal- oder Femoralherpes, Herpes und Adenovirus-Keratitis und Konjunktivitis, Vaginitis, Endocervicitis und Exocervicitis mit Herpes-Ethiologie, Herpes Zoster der Augen und Haut angewendet.
Nigerizin-Tropfen wurden an 112 Patienten in drei Augenkliniken des Medizinischen Akademie-Forschungsinstitutes für Augenkrankheiten, Lehrstuhl für Ophthalmologie an den Hochschulen für Medizin in Varna und in Pleven verabreicht.

Mutagenicity = assay: Mutagenicity
Method: (§1) Bei Spritzenbehandlung: Die akute Toxizität bei weißen Ratten und Mäusen (=LD₅₀) liegt im Bereich von 55 bis 66 mg/kg. Die chronische sechsmonatige Toxizität in Dosen bis 1/10 der LD₅₀ beträgt bis zu 5,6 mg/kg. […] Die pharmakologische Untersuchung zeigte gute Toleranz bei verschiedenen Tieren bei Konzentrationen bis zu 1/10 der LD₅₀.

[2] = Acute toxicity by injection (LD50); design: species or system weißen Ratten und Mäusen; conditions: in vivo, white rats and mice, read-out: akute Toxizität (=LD₅₀)
Method: as §1

Ratten = assay: Chronic six-month toxicity by injection; format: in vivo; conditions: six months, doses up to 1/10 of LD₅₀ (up to 5,6 mg/kg), blood, coagulation, blood and urine biochemistry, liver, histology, general state, weight, behaviour
Method: as §1

trächtigen weißen Ratten = assay: Embryotoxicity and teratogenicity by injection; format: in vivo; conditions: doses up to 5,6 mg/kg, pregnant white rats
Method: as §1

zentralen Nervensystem = assay: Safety pharmacology: central nervous system; conditions: in vivo
Method: as §1

verschiedenen Tieren = assay: Pharmacological tolerance study; format: in vivo; conditions: various animals; up to 1/10 of LD₅₀
Method: as §1

Auge eines Kaninchens = format: in vivo, Kaninchen; conditions: topical; doses 20 times the therapeutic concentrations; 10 days
Herpes-Erkrankungen = assay: Efficacy of nigericin ointment depending on the start of treatment (Table 4); format: in vivo, Patienten; conditions: treatment begun on the first day; analysis of 88 patients
Description: Es wurde die Abhängigkeit zwischen der Wirksamkeit der Behandlung mit Nigerizin-Salbe und dem Beginn der Behandlung untersucht (siehe Tabelle 4). TABELLE 4
Bei 140 mit Nigerizin-Salbe behandelten Patienten wurde eine Wirksamkeit von 90% erreicht, verglichen mit weniger als 20% für die mit Placebo behandelten Kontrollgruppe. Die eingehende Analyse der Ergebnisse an 88 Patienten zeigt, daß es sehr wichtig ist, bei Nigerizin früh mit der Behandlung zu beginnen, wobei am ersten Tag die Wirksamkeit bis zu 100% beträgt. Bei den Patienten, die mit einer Placebo-Salbe behandelt wurden, wird die Wirksamkeit nicht durch die Phase der Erkrankung beeinflußt, was ihren nicht spezifischen Charakter beweist.

[3] = tested on: Glattmuskulatur des Magen-Darm-Wegs; assay: Safety pharmacology: smooth muscle of the gastrointestinal tract; format: in vivo, Ratten und Kaninchen; conditions: rats and rabbits
Method: as §1

[4] = tested on: Herz-Blutgefäß-System von Katzen; assay: Safety pharmacology: cardiovascular system (blood pressure, electrocardiogram); format: in vivo; conditions: cats; blood pressure and electrocardiograms
Method: as §1

[5] = Adenovirus-Keratokonjunktivitis

Row | Compound | Dauer der Behandlung (Tage) [1, 5] | Prozent der günstigen Beeinflußung [1, 5] [Prozent] | Dauer der Behandlung (Tage) ([1]; Oberflächen-Herpeskeratitis) | Prozent der günstigen Beeinflußung ([1]; Oberflächen-Herpeskeratitis) [Prozent] | Dauer der Behandlung (Tage) ([1]; Tiefe/Ulzerose/ Keratitis) | Prozent der günstigen Beeinflußung ([1]; Tiefe/Ulzerose/ Keratitis) [Prozent] | Durchschnittsaufenthalt im Krankenhaus (Tage) ([1]; all clinical forms of the treatment group) | Mutagenität (Mutagenicity) | LD50 [2] [mg/kg] | chronische sechsmonatige Toxizität: Abweichungen der behandelten Ratten (Ratten) | embryotoxische und terratogene Wirkung (trächtigen weißen Ratten) | Dauer der Behandlung ([1]; compared with Idoxyridin, immune and physico-chemical means) | Veränderungen im zentralen Nervensystem (zentralen Nervensystem) | Toleranz (verschiedenen Tieren) | toxische Wirkung am Auge (Auge eines Kaninchens) | Wirksamkeit (Herpes-Erkrankungen) [%] | Funktionen der Glattmuskulatur des Magen-Darm-Wegs [3] | Wirkung auf das Herz-Blutgefäß-System [4]
1 | O=c1[nH]c(=O)n([C@H]2C[C@H](O)[C@@H](CO)O2)cc1I [Idoxyridin, 2'-desoxy-5-iodo-uridin] | 9,3 Tage | 41 | 17,9 Tage | 82 | 25,2 Tage | 51 | 23,6 Tage | – | – | – | – | – | – | – | – | – | – | –
2 | COC1CC(CC2CCC(C)C(C(C)C(=O)O)O2)OC2(OC(C)(C3CCC(C)(C4OC(C5OC(O)(CO)C(C)CC5C)CC4C)O3)CC2C)C1C (stereo not drawn) [Nigerizin] | – | – | – | – | – | – | – | keine Mutagenität | 55 to 66 | keine Abweichungen | keine embryotoxische und terratogene Wirkung | um mehr als zweimal verringert | keine Veränderungen | gute Toleranz | keine toxische Wirkung | ≤ 100 | ändert nicht | keine Wirkung
